Data on 17 compounds can be found in ChEMBL document CHEMBL1149799, “Bioactive peroxides as potential therapeutic agents” (Eur J Med Chem, 2008).

≈ marks a conversion by molar mass, not a printed value.

The subject of assay [1] is A549. Kind of assay: Cytotoxicity against human A549 cells. The settings on record: Homo sapiens, A549; for EC50: read-out: ED50 (the source's name). Type of assay: functional, cell-based.
Another assay relates to KB. Kind of assay: Cytotoxicity against human KB cells. The assay is classed as functional, cell-based. The settings on record: Homo sapiens, KB; read-out: ED50 (the source's name).
A further assay deals with P388. Kind of assay: Cytotoxicity against mouse P388 cells. The assay is classed as functional, cell-based. To be noted: Mus musculus, P388; read-out: ED50 (the source's name).
A short description of assay [2]: Cytotoxicity against human […] cells. To be noted: read-out: ED50 (the source's name). Type of assay: functional.
Another assay relates to Plasmodium falciparum. Kind of assay: Antimalarial activity against Plasmodium falciparum W2. The assay is classed as functional, organism-based.
Assay [3] is described as follows: Cytotoxicity against mouse Ehrlich Ascites carcinoma by […] assay. The assay is classed as functional.
A short description of assay [4]: Cytotoxicity against human CFUGM. The assay is classed as functional. To be noted: CFU-GM.
A short description of assay [5]: Cytotoxicity against mouse Ehrlich Ascites carcinoma by clonogenic assay. The assay is classed as functional.
Assay [6] in a line: Cytotoxicity against human P833 cells. Type of assay: functional, cell-based.
Assay [7] can be described thus: Cytotoxicity against human H116 cells. Type of assay: functional, cell-based.
The test system of another assay is T98G. Put plainly: Cytotoxicity against human T98G cells. Type of assay: functional, cell-based.
A further assay relates to SK-BR-3. Kind of assay: Cytotoxicity against human SKBR3 cells. The assay is classed as functional, cell-based.
Another assay concerns PSN1. Put plainly: Cytotoxicity against human PSN1 cells. The assay is classed as functional, cell-based.
The test system of the next assay is PC-3. Put plainly: Cytotoxicity against human PC3 cells. Type of assay: functional, cell-based.
A short description of assay [8]: Cytotoxicity against human HERP3B cells. Type of assay: functional.
Assay [9] deals with A549. Kind of assay: Cytotoxicity against human A549 cells by soft agar assay. Type of assay: functional.
The subject of another assay is KM12. Put plainly: Cytotoxicity against human KM12 cells by soft agar assay. Type of assay: functional.
The next assay relates to BT-549. Kind of assay: Cytotoxicity against human BT549 cells by soft agar assay. The assay is classed as functional.
In a further assay the test system is MOLT-4. Put plainly: Cytotoxicity against human MOLT4 cells by soft agar assay. Type of assay: functional.
A short description of assay [10]: Cytotoxicity against human IGRO cells by soft agar assay. The assay is classed as functional.
The subject of a further assay is HL-60. Put plainly: Cytotoxicity against human HL60 cells by soft agar assay. Type of assay: functional.
Another assay has as its system 786-0. Put plainly: Cytotoxicity against human renal 7860 cells by soft agar assay. The assay is classed as functional.
Assay [11] in a line: Cytotoxicity against human LOX cells by soft agar assay. The assay is classed as functional.
A further assay concerns BXPC-3. Kind of assay: Cytotoxicity against human BXPC3 cells. The assay is classed as functional.
Another assay relates to KM-20L2. Put plainly: Cytotoxicity against human KM20L2 cells. The assay is classed as functional.
A further assay relates to DU-145. Kind of assay: Cytotoxicity against human DU145 cells. The assay is classed as functional, cell-based.
The next assay relates to MCF7. Put plainly: Cytotoxicity against human MCF7 cells. Type of assay: functional, cell-based.
A further assay relates to NCI-H460. Kind of assay: Cytotoxicity against human NCI-H460 cells. Type of assay: functional, cell-based.
The test system of the next assay is SF-268. Kind of assay: Cytotoxicity against human SF268 cells. Type of assay: functional, cell-based.
A short description of assay [12]: Cytotoxicity against human NCI60 cells. Type of assay: functional.
In the next assay the test system is WEHI-164. Kind of assay: Cytotoxicity against mouse WEHI164 cells. The assay is classed as functional, cell-based.
The test system of another assay is Candida albicans. Put plainly: Antifungal activity against Candida albicans. Type of assay: functional.

Regarding `C=C(C)[C@@H](CC)CC[C@@H](C)[C@H]1CC[C@H]2[C@@H]3C=C[C@@]4(OO)C[C@@H](O)CC[C@]4(C)[C@H]3CC[C@@H]21`, the EC50 amounted to 1.1 µg/mL (≈ 2.55 µM) in the assay with A549 [1], 1 µg/mL (≈ 2.32 µM) with KB, 0.5 µg/mL (≈ 1.16 µM) in the assay on P388 and 0.9 µg/mL (≈ 2.09 µM) in assay [2].
Broadly, the IC50 is the concentration that inhibits the measured activity by half. Low values mean inhibition by little substance, high ones a need for much substance. In turn, `CCC(=O)/C=C/[C@@]1(CC)C[C@H](CC)[C@H](CC(=O)OC)OO1` [PLAKORTOLIDE I(M)] displayed an IC50 in the assay with Plasmodium falciparum of 0.57 µg/mL (≈ 1.91 µM).
As to `C=C1C(=O)O[C@@H]2O[C@@]3(C)CC[C@H]4[C@H](C)CC[C@@H]1[C@@]24OO3`, the half-maximal inhibitory concentration (IC50) worked out at 11.3 µM in assay [3], 1.7 µM in assay [4] and 10 µM in assay [5].
Regarding `CC/C=C/[C@H](CC)C[C@]1(CC)C=C(CC)[C@H](CC(=O)O)OO1` [HATERUMADIOXIN A], it took 0.011 µg/mL (≈ 0.0354 µM) to reach half-maximal inhibition in [6] (IC50).
With `CC(C)(O)C1=C[C@@]23CCC4C(C)(C)CCC[C@]4(C)[C@H]2C[C@H]1OO3` (some centres undefined), the IC50 (in the assay with A549 [1]; in [7]; with T98G; with SK-BR-3; in the assay on PSN1) was more than 5 µg/mL each time.
For `CCOc1ccc(OOc2ccc(OCC)c3cc4c(cc23)[C@]2(C)CCC(=O)c3coc(c32)C4=O)c2cc3c(cc12)[C@@]1(C)CCC(=O)c2coc(c21)C3=O`, the Activity in the assay with PC-3 is listed as 35; in assay [8], 5.
Compound `CCCC[C@H](CC)C[C@]1(CC)C=C(CC)[C@H](CC(=O)O)OO1` [HATERUMADIOXIN B] displayed an IC50 in [6] of 0.0055 µg/mL (≈ 0.0176 µM).
Consider `CCC/C=C/[C@]1(CC)C[C@H](CC)[C@H](CC(=O)O)OO1` [PLAKORTIDE L], for which the IC50 with Plasmodium falciparum turned out to be 0.57 µg/mL (≈ 2.11 µM).
Consider `C[C@@H]1CC[C@H]2[C@@H](C)C(=O)O[C@@H]3O[C@@]4(C)CC[C@@H]1[C@]32OO4` [ARTEMISININ], for which the IC50 in assay [3] is more than 723 µM; in assay [4], 385 µM; in [5] it was more than 1000 µM.
For the compound `CC1=C(CC/C(C)=C/CC[C@@]2(C)CC[C@@H]([C@H](C)C(=O)O)OO2)C(C)(C)CCC1` [EPIMUQUBILIN A], the GI50 (in the assay on A549 [9]; in the assay with KM12; in the assay on BT-549; with MOLT-4; in assay [10]; with HL-60) was more than 5 µM each time. Further, the GI50 (with 786-0; in assay [11]) was more than 5 µM throughout.
Turning to `CC(C)/C(=C\COO)CC[C@@H](C)[C@H]1CC[C@@H]2[C@@H]1CC[C@H]1[C@H]2CC=C2C[C@@H](O)CC[C@@]21C`, the EC50 is 2.2 µg/mL (≈ 5.11 µM) with A549 [1], 2.2 µg/mL (≈ 5.11 µM) with KB, 0.5 µg/mL (≈ 1.16 µM) with P388 and 5 µg/mL (≈ 11.6 µM) in assay [2].
For the compound `CC/C(=C\[C@@]1(CC)C[C@H](CC)[C@H](CC(=O)OC)OO1)[C@H]1O[C@H]1CC` [PLAKORSTATIN 1], the GI50 with BXPC-3 was more than 10; in the assay on KM-20L2 it was more than 10; in the assay with DU-145, more than 10; in the assay on MCF7, more than 10; with NCI-H460, more than 10; in the assay on SF-268 it was 1.8. Also, in the assay on P388, the EC50 worked out at 1.1 µg/mL (≈ 3.23 µM).
`COc1ccc(OOc2ccc(OC)c3cc4c(cc23)[C@]2(C)CCC(=O)c3coc(c32)C4=O)c2cc3c(cc12)[C@@]1(C)CCC(=O)c2coc(c21)C3=O`: the Activity amounted to 56 with PC-3 and 5 in assay [8].
As usually defined, the TGI is the concentration giving total growth inhibition. On to `CC1(C)CC(C23C=CC(CO)(CCC2)OO3)CCC1Br` (centres undefined) [MAJAPOLENES A], for which, in assay [12], the GI50 worked out at 0.4 µM and total growth inhibition (TGI) required 0.9 µM. In addition, the CC50 in assay [12] (read-out: LC50 (the source's name)) came out at 2.8 µM.
For `CCCCC(CC)C/C(C)=C/[C@@]1(CC)C[C@@H](CC)[C@@H](CC(=O)OC)OO1` (some centres undefined), in the assay on WEHI-164, inhibition was half-maximal at 9.5 µg/mL (≈ 25.8 µM) (IC50).
By MIC is commonly meant the least concentration at which growth counts as inhibited. High values mean a need for much substance, low ones inhibition by little substance. As to `CC(CCCCCC/C=C\C=C\c1ccccc1)C[C@]1(C)C[C@](C)(CC(=O)O)OO1` (some centres undefined), inhibition of growth in the assay on Candida albicans (MIC) required 1.6 µg/mL (≈ 3.86 µM).
For `C=C1CCCC(C)(C)C1(O)CC/C(C)=C/CC[C@]1(C)CC[C@@H]([C@@H](C)C(=O)OC)OO1` (some centres undefined) [MUQUBILIN B], the GI50 is more than 5 µM with A549 [9]; more than 5 µM in the assay on KM12; more than 5 µM with MOLT-4; 2.42 µM in [10]; more than 5 µM with HL-60; more than 5 µM in the assay with 786-0. This compound also yielded a GI50 in assay [11] of more than 5 µM.
